Values quoted from earlier work as cited in patent publication US20130224794A1, “MINERAL-PEPTIDE CHELATES” (NUGEN BIOSCIENCE (TAIWAN) CO., LTD., priority 2009, published 2013).
Where two headings read alike, the source gives them in different places.

Conditions: for absorption: qualitative
[1] = general soybean isoflavones, glucoside vs aglycone form

bioavailability [1]	absorption [1]	SMILES	bioavailability (in vivo)
		O=c1c(-c2ccc(O)cc2)coc2cc(O)ccc12 [daidzein]	90%
90%	fast	O=c1c(-c2ccc(O)cc2)coc2cc(O)cc(O)c12 [genistein]	
20%	slow	O=c1c(-c2ccc(O)cc2)coc2cc(O[C@@H]3O[C@H](CO)[C@@H](O)[C@H](O)[C@H]3O)cc(O)c12 [genistin]	

SMILES	bioavailability [1]	absorption [1]	bioavailability (in vivo)
O=c1c(-c2ccc(O)cc2)coc2cc(O[C@@H]3O[C@H](CO)[C@@H](O)[C@H](O)[C@H]3O)ccc12 [daidzin]	20%	slow	
